Results as given in publication PMC7352216 (Cancers, 2020).
pIC50: −log10 of the molar value. Like-named read-outs stand apart in the source and are kept apart here.

Assays:
[1] = target: T1, CLK4 (Homo sapiens, UniProt Q9HAZ1); assay: In vitro kinase selective profiling; assay type: biochemical
T1 construct: purchased Reaction Biology Corp

[2] = in vivo; settings: BALB/c-nude, mouse, EBC-1 and SNU-5 tumor tissue / plasma, oral, 30 mg/kg
[3] = Pharmacokinetic study; assay type: in vivo, SD rats
Protocol: (§1) Thirty SD rats (24 males and 6 females, approximately 7–9 weeks old, approximately 299–390 g on the dosing day) were purchased from Vital River Laboratory Animal Technology Co., Ltd., and beagle dogs (12 males and 3 females, approximately 12–24 months old, approximately 8–14 kg on the dosing day) were purchased from Beijing Marshall Biotechnology Co., Ltd. The rats and dogs were maintained in air-conditioned animal quarters with alternating 12 h light/dark cycles at a RT of 20–26 °C and a relative humidity of 40–70% before and during the trial. All procedures involving the care and handling of the rats and dogs followed the guidelines of the Pharmaron Institutional Animal Care and Use Committee (Nos. 51604-17-786, 51604-17-785). PK studies were designed to characterize the single-dose intravenous and oral PK profiles of ABN401 in rats and dogs. […] The formulation was freshly prepared on the day of dosing. For all intravenous studies, dosing solutions were prepared using the required volume of 5% DMSO/45% PEG400 in 50% distilled water, whereas 20% PEG400 in 0.1 M sodium acetate buffer (pH 4) was used to prepare oral formulations. The formulated samples were stirred at RT for at least 10 min prior to and during dosing. For the assessment of plasma drug concentrations, blood samples were collected at 5, 15, 30, 60, 120, 240, 480, and 1440 min post-dose from each rat and dog. Liquid chromatography, coupled with tandem mass spectrometry (LC-MS/MS), was used to quantify ABN401 in plasma samples from rats and dogs. […] Blood samples were collected from the cephalic vein or the femoral vein prior to administration and at 0.5, 1, 2, 4, 8, 12, and 24 h after administration in the control group which received vehicle and in the orally treated groups. In the intravenous administration group, blood was collected from the cephalic vein or the femoral vein prior to administration and at 0.083, 0.25, 0.5, 1, 2, 4, 8, and 24 h after administration. […] All procedures involving the care and handling of the monkeys followed the guidelines of the KIT-Institutional Animal Care and Use Committee (No. MN117002).
(§2) The linear log trapezoidal algorithm weighting, 1/Y × Y, was used for parameter calculation. The mean PK parameters were calculated in individual animals from each treatment group. Concentrations below the lower limit of quantification (BLLOQ) were excluded from the calculation of PK parameters. The mean values of the PK parameters were calculated using Microsoft Excel.

[4] = test system: MKN45; assay: WST cell viability assay; settings: Homo sapiens, MKN-45, 72 h, read-out: ABN401 IC50
[5] = Pharmacokinetic study; assay type: in vivo, cynomolgus monkeys; settings: for AUC0-t / AUCinf / Cmax / Tmax / half-life: male
Protocol: as §1, §2

[6] = test system: GA2278; assay: In vivo efficacy test in PDX model; parameters: species or system BALB/c-nude mice; settings: MET-negative PDX
[7] = Pharmacokinetic study; assay type: in vivo, beagle dogs
Protocol: as §1, §2

[8] = test system: Hs746T; assay: WST cell viability assay; settings: Homo sapiens, 72 h, read-out: ABN401 IC50
[9] = SD, rat, plasma, IV 5 mg/kg, male
[10] = SD, rat, plasma, PO 5 mg/kg, female
[11] = SD, rat, plasma, PO 5 mg/kg, male
[12] = SD, rat, plasma, PO 20 mg/kg, male
[13] = SD, rat, plasma, PO 50 mg/kg, male
[14] = cynomolgus monkey, plasma, IV 1 mg/kg
[15] = cynomolgus monkey, plasma, PO 1 mg/kg capsule
[16] = cynomolgus monkey, plasma, PO 5 mg/kg capsule
[17] = cynomolgus monkey, plasma, PO 10 mg/kg capsule
[18] = beagle, dog, plasma, IV 2 mg/kg, male
[19] = beagle, dog, plasma, PO 2 mg/kg, female
[20] = beagle, dog, plasma, PO 2 mg/kg, male
[21] = beagle, dog, plasma, PO 5 mg/kg, male
[22] = beagle, dog, plasma, PO 10 mg/kg, male

T1 sequence (Q9HAZ1 whole entry): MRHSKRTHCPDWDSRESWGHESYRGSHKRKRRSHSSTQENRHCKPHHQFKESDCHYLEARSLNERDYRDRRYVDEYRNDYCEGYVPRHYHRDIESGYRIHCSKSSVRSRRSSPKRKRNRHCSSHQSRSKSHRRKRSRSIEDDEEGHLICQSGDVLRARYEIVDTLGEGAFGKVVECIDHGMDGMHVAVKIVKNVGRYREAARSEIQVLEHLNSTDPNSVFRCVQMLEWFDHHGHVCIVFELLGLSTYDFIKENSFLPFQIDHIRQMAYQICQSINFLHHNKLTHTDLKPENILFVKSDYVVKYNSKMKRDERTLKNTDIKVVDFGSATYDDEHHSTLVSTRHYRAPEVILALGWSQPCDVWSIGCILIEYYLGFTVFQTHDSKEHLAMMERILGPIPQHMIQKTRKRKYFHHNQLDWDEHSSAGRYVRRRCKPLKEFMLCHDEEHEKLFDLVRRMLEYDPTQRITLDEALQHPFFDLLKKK

CN1CCN(Cc2ccc(-c3cnc(N4CCOC(Cn5nnc6ncc(-c7cnn(C)c7)nc65)C4)nc3)cc2)CC1 (stereo not drawn) [ABN401]
inhibition at 1 µM [1]: 45% | percent inhibition ([1]; 1 μM ABN401, summary sentence below Table S2): 44.59% | remaining activity at 1 µM ([1]; read-out: % Enzyme Activity (Relative to DMSO controls) Data 1): 55.6% | remaining activity at 1 µM ([1]; read-out: % Enzyme Activity (Relative to DMSO controls) Data 2): 55.2% | Kp [2]: 2.66 to 4.25 | AUC0-t ([3]; IV 5 mg/kg, male): 5946 hr X ng/mL | AUCinf ([3]; IV 5 mg/kg, male): 5971 hr X ng/mL | observations in preclinical PK study ([3]; IV and oral, 0 to 24 h): no abnormal observations | AUC0-t ([3]; PO 5 mg/kg, female): 3344 hr X ng/mL | AUC0-t ([3]; PO 20 mg/kg, male): 8003 hr X ng/mL | AUC0-t ([3]; PO 50 mg/kg, male): 13,219 hr X ng/mL | C0 [3, 9]: 3520 ng/mL | MRT last [3, 9]: 3.15 h | half-life [3, 9]: 3.33 h | Cmax [3, 10]: 619 ng/mL | MRT last [3, 10]: 4.55 h | Tmax [3, 10]: 1.5 h | bioavailability ([3]; SD, rat, plasma, PO 5 mg/kg, female, read-out: F): 56.2% | Cmax [3, 11]: 458 ng/mL | MRT last [3, 11]: 4.9 h | Tmax [3, 11]: 2 h | bioavailability ([3]; SD, rat, plasma, PO 5 mg/kg, male, read-out: F): 42.1% | Cmax [3, 12]: 1020 ng/mL | MRT last [3, 12]: 6.14 h | Tmax [3, 12]: 3 h | bioavailability ([3]; SD, rat, plasma, PO 20 mg/kg, male, read-out: F): 33.6% | Cmax [3, 13]: 1430 ng/mL | MRT last [3, 13]: 8.28 h | Tmax [3, 13]: 2 h | bioavailability ([3]; SD, rat, plasma, PO 50 mg/kg, male, read-out: F): 22.2% | bioavailability ([3]; both sexes, SD, rat, plasma, oral, read-out: bioavailability F%): 42.1 to 56.2% | pIC50 [4]: 8.50 | AUC0-t ([5]; IV 1 mg/kg): 322.6 hr X ng/mL | AUCinf ([5]; IV 1 mg/kg): 327.1 hr X ng/mL | observations in preclinical PK study ([5]; IV and oral, 0 to 24 h): no abnormal observations | AUC0-t ([5]; PO 1 mg/kg capsule): 2.9 hr X ng/mL | AUC0-t ([5]; PO 5 mg/kg capsule): 33.6 hr X ng/mL | AUC0-t ([5]; PO 10 mg/kg capsule): 67.0 hr X ng/mL | AUCinf ([5]; PO 10 mg/kg capsule): 78.2 hr X ng/mL | Cmax [5, 14]: 324 ng/mL | Tmax [5, 14]: 0.083 h | half-life [5, 14]: 0.88 h | Cmax [5, 15]: 1.9 ng/mL | Tmax [5, 15]: 1.7 h | Cmax [5, 16]: 7.4 ng/mL | Tmax [5, 16]: 4 h | Cmax [5, 17]: 10.8 ng/mL | Tmax [5, 17]: 3.3 h | half-life [5, 17]: 6 h | bioavailability ([5]; cynomolgus monkey, plasma, oral doses ranging from 1–10 mg/kg, read-out: bioavailability F%): 0.9 to 2.1% | TGI ([6]; 10 mg/kg oral): 56.0% | TGI ([6]; 30 mg/kg oral): 47.6% | AUC0-t ([7]; IV 2 mg/kg, male): 527 hr X ng/mL | AUCinf ([7]; IV 2 mg/kg, male): 560 hr X ng/mL | observations in preclinical PK study ([7]; IV and oral, 0 to 24 h): no abnormal observations | AUC0-t ([7]; PO 2 mg/kg, female): 199 hr X ng/mL | AUC0-t ([7]; PO 2 mg/kg, male): 145 hr X ng/mL | AUC0-t ([7]; PO 10 mg/kg, male): 725 hr X ng/mL | C0 [7, 18]: 172 ng/mL | MRT last [7, 18]: 4.79 h | half-life [7, 18]: 7.37 h | Cmax [7, 19]: 21 ng/mL | MRT last [7, 19]: 9.15 h | Tmax [7, 19]: 1 h | bioavailability ([7]; beagle, dog, plasma, PO 2 mg/kg, female, read-out: F): 37.7% | Cmax [7, 20]: 9.2 ng/mL | MRT last [7, 20]: 11.2 h | Tmax [7, 20]: 1 h | bioavailability ([7]; beagle, dog, plasma, PO 2 mg/kg, male, read-out: F): 27.4% | Cmax [7, 21]: 44.6 ng/mL | MRT last [7, 21]: 8.37 h | Tmax [7, 21]: 4 h | bioavailability ([7]; beagle, dog, plasma, PO 5 mg/kg, male, read-out: F): 34.5% | Cmax [7, 22]: 65.3 ng/mL | MRT last [7, 22]: 8.68 h | bioavailability ([7]; beagle, dog, plasma, PO 10 mg/kg, male, read-out: F): 27.5% | bioavailability ([7]; both sexes, beagle, dog, plasma, oral, read-out: bioavailability F%): 27.4 to 37.7% | pIC50 [8]: 8.70
